Data on 4 compounds can be found in patent US5502035A, “N-terminus modified analogs of LHRH” (Tap Holdings Inc., priority 1994, dated 1996).

Molecules are shown by their SMILES. Non-standard residues stand in square brackets, D forms with d. Residues, ends and D or L forms follow the SMILES beside them. Groups on a side chain read outwards from the residue. *: point of attachment. Shikimoyl = O=C(C1=C[C@@H](O)[C@@H](O)[C@H](O)C1)*; dPhe(4-Cl) = N[C@H](Cc1ccc(Cl)cc1)C(=O)O; d2Nal = N[C@H](Cc1ccc2ccccc2c1)C(=O)O; Lys(iPr) = CC(C)NCCCC[C@H](N)C(=O)O; NMeY = CN[C@@H](Cc1ccc(O)cc1)C(=O)O; hArg = N=C(N)NCCCC[C@H](N)C(=O)O; d3Pal = N[C@H](Cc1cccnc1)C(=O)O; Nicotinoyl = O=C(c1cccnc1)*; 2Furoyl = O=C(c1ccco1)*; GABA = NCCCC(=O)O; azaGly = NNC(=O)O

For the assay, the target named is T1, LHRH (Rattus norvegicus, UniProt P30969).
T1 construct: endogenous in cells; host or cells: rat pituitary cells (own knowledge of the cited Haviv 1989 method)
T1 sequence (P30969 1-327): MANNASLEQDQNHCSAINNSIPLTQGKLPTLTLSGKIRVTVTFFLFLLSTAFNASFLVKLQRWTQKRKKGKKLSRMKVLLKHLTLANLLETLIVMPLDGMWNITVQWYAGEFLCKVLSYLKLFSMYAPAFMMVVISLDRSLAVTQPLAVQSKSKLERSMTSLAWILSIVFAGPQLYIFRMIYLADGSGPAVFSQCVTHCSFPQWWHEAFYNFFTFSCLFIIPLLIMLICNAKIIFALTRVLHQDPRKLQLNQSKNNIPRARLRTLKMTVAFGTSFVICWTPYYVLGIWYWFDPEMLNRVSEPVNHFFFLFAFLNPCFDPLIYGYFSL
Briefly: in vitro test for LHRH antagonist potency (pA2). Format: cell-based. As to conditions: negative logarithm of the antagonist concentration required to shift the response curve produced by the agonist leuprolide to two-fold higher concentration. The method, boiled down: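 Antagonism read against the agonist leuprolide on rat LHRH receptor; value is pA2, the −log of antagonist concentration that doubles the agonist concentration needed for the same response.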
As to `CC(C)C[C@H](NC(=O)[C@@H](CCCCNC(=O)c1cccnc1)NC(=O)[C@H](Cc1ccc(O)cc1)N(C)C(=O)[C@H](CO)NC(=O)[C@H](Cc1cccnc1)NC(=O)[C@@H](Cc1ccc(Cl)cc1)NC(=O)[C@@H](Cc1ccc2ccccc2c1)NC(=O)CNC(=O)[C@@H]1CCCO1)C(=O)N[C@@H](CCCCNC(C)C)C(=O)N1CCC[C@H]1C(=O)N[C@H](C)C(N)=O` [Example 83, N (S)-2-Tetrahydrofuroyl-Gly-D2Nal-D4ClPhe-3Pal-Ser-NMeTyr-DLys(N-epsilon-Nicotinyl) -Leu-Lys(N-epsilon-Isopropyl)-Pro-DAlaNH2], the Kb was 0.0112 nM.
The same measure for `CC(C)C[C@H](NC(=O)[C@@H](CCCCNC(=O)C1=C[C@@H](O)[C@@H](O)[C@H](O)C1)NC(=O)[C@H](Cc1ccc(O)cc1)N(C)C(=O)[C@H](CO)NC(=O)[C@@H](Cc1cccnc1)NC(=O)[C@@H](Cc1ccc(Cl)cc1)NC(=O)[C@@H](Cc1ccc2ccccc2c1)NC(=O)CNC(=O)c1cccnc1)C(=O)N[C@@H](CCCCNC(=N)N)C(=O)N1CCC[C@H]1C(=O)N[C@H](C)C(N)=O` [Example 25a, N-Nicotinyl-Gly-D2Nal-D4ClPhe-D3Pal-Ser-NMeTyr-DLys(Shik)-Leu-Harg-Pro-DAlaNH2] (Nicotinoyl-G[d2Nal][dPhe(4-Cl)][d3Pal]S[NMeY][dK](Shikimoyl)L[hArg]P[dA]-NH2): 0.0141 nM; for `CC(C)C[C@H](NC(=O)[C@@H](CCCCNC(=O)c1cccnc1)NC(=O)[C@H](Cc1ccc(O)cc1)N(C)C(=O)[C@H](CO)NC(=O)[C@@H](Cc1cccnc1)NC(=O)[C@@H](Cc1ccc(Cl)cc1)NC(=O)[C@@H](Cc1ccc2ccccc2c1)NC(=O)CCCNC(=O)C1=C[C@@H](O)[C@@H](O)[C@H](O)C1)C(=O)N[C@@H](CCCCNC(C)C)C(=O)N1CCC[C@H]1C(=O)N[C@H](C)C(N)=O` [Example 6d, N-Shikimyl-4-Aminobutyryl-D2Nal-D4ClPhe-D3Pal-Ser-NMeTyr-DLys(N-epsilon-Nicotinyl) -Leu-Lys(N-epsilon-Isopropyl)-Pro-DAlaNH2] ({Shikimoyl-GABA}-[d2Nal][dPhe(4-Cl)][d3Pal]S[NMeY][dK](Nicotinoyl)L[Lys(iPr)]P[dA]-NH2): 0.0126 nM.
As to `CC(C)C[C@H](NC(=O)[C@@H](CCCCNC(=O)NNC(=O)c1ccco1)NC(=O)[C@H](Cc1ccc(O)cc1)N(C)C(=O)[C@H](CO)NC(=O)[C@@H](Cc1cccnc1)NC(=O)[C@@H](Cc1ccc(Cl)cc1)NC(=O)[C@@H](Cc1ccc2ccccc2c1)NC(=O)C1=C[C@@H](O)[C@@H](O)[C@H](O)C1)C(=O)N[C@@H](CCCCNC(C)C)C(=O)N1CCC[C@H]1C(=O)N[C@H](C)C(N)=O` [Example 30c, N-Shik-D2Nal-D4ClPhe-D3Pal-Ser-NMeTyr-DLys(Azagly-2Fur)-Leu-Lys(Isp)-Pro-DAlaNH2] (Shikimoyl-[d2Nal][dPhe(4-Cl)][d3Pal]S[NMeY][dK]([azaGly-2Furoyl])L[Lys(iPr)]P[dA]-NH2), the Kb is 0.038 nM.
